Results: US20110002897A1, “DIRECTED DIFFERENTIATION OF STEM CELLS” (Burnham Institute for Medical Research, priority 2009, published 2011)
Entries after “also recorded” stand apart in the source; their conditions may differ.

Columns and labels:
ERK1/2 = experiment: Western blot of phospho-ERK1/2 (MAPK pathway); assay type: cell-based, human; conditions: 100 ng/mL, 24 hr
Text: (§1) The signal transduction pathway(s) involved in this highly efficient neural conversion was addressed. The PI3K/MAPK pathways were focused on since MK-induced activation of both pathways has been reported (Kadomatsu et al. Cancer Lett. 204:127-143, 2004; Stoica et al. JBC 277:35990-35998, 2002). Since both pathways are already active in undifferentiated hESCs and necessary for their growth (Bendall et al. Nature 448:1015-1021, 2007; Vallier et al. J. Cell. Sci. 118:4495-4509, 2005; Xu et al. Nat. Methods 2:185-190, 2005), cells were exposed to high concentrations (100 ng/mL) of MK, IGF-1, and FGF-2 for 24 hr and phosphorylation levels of AKT and ERK1/2 were compared (FIG. 4a).
(§2) Cell lysates were prepared in RIPA buffer containing protease and phosphatase inhibitors (Pierce). 4-12% gradient gels (NuPage) were used with Invitrogen's SureLock Mini-Cell and gel-to-membrane transfer was performed with the XCell Blot Module (Invitrogen). The following primary antibodies were used: goat MK (R&D), mouse and rabbit GAPDH (1:1000, Santa Cruz), p-AKT 5473 and total AKT (1:1000, Cell Signaling Technologies), phospho-ERK1/2 and total ERK1/2 (1:1000, Cell Signaling Technologies). The following secondary antibodies were used: donkey anti-mouse Alexa 680 (Invitrogen), donkey anti-rabbit Alexa 680, donkey anti-rabit 800 (Rockland), donkey anti-mouse 800. Western Blots were imaged using the Odyssey Infrared Imaging System (LI-COR).

ALK 5, 4, 7 = conditions: Tojo et al. 2005; cited from earlier work
H9 hESCs = experiment: Feeder-free neural induction on Matrigel, PAX6/Nestin by FACS and immunostaining; assay type: cell-based, human; conditions: for total H9 hESCs differentiated into PAX6+/Nestin+ cells (FACS): 10 μM inhibitor together with 100 ng/mL MK+DAP
hESCs (H9 cells) = experiment: Neural tube-like (NTL) structure formation by hESC colonies grown on HS27 fibroblasts; assay type: cell-based, human; conditions: for NTL structures observed: MK applied together with FGF-2, or MK replaced by the factor
Procedure: To confirm that increased MK levels correlate with differentiation, EBs from hESCs and HS27-iPSCs were generated and quantitatively analyzed MK expression. […] To test if exogenously added MK may display neural-inducing activities, hESCs were cultured in the presence of recombinant MK protein using two different assays. First, manually passaged hESCs (H9 cells) were plated on HS27 fibroblasts and grown in the presence of 100 ng/mL MK. […] These NTLs expressed the typical neuroectodermal markers PAX6 and Nestin (FIG. 1d) and, when single NTLs were manually picked under microscopic guidance and attached to laminin-coated dishes, neuronal cells started migrating out from these structures (FIG. 9). […] Second, MK-induced differentiation was investigated under feeder-free conditions. Manually passaged H9-hESCs cells were plated on Matrigel and grown in 100 ng/mL MK for 6 days.
Human ESC lines H1, H9, H14, BG02, HSF-6, and HUES13 were cultured on matrigel (BD) or Geltrex (Invitrogen) in the presence of MEF-CM (DMEM/F12, 20% Knockout Serum Replacement, non-essential amino acids, 2-mercaptoethanol). In some experiments, hESCs and iPSCs were cultured in mTeSR medium (Stem Cell Technologies). Neural cells were grown in N2B27 supplement (Gibco). The following reagents were used: MK (Millipore), FGF-2 (NIH/NCI), BDNF (Peprotech), GDNF (Peprotech), FGF-8 (Peprotech), SHH (Peprotech and R&D Systems), Noggin (Peprotech), IGF-1 (Peprotech), DLL1, DLL4, Jagged1 (R&D), all-trans RA (Sigma), Forskolin (Sigma), A 81-01 (Tocris), Dorsomorphin (Sigma), PNU-74654 (Sigma), Rapamycin (Sigma), LY294002 (Tocris), U0126 (Tocris).
Cells were fixed with 4% paraformaldehyde and stained with following antibodies: anti-mouse OCT-4 (1:200, Santa Cruz, C-10), rabbit Nanog (1:200, Santa Cruz, H-155), mouse TRA 1-81 (1:200, Millipore), alpha-Fetoprotein (1:50, Santa Cruz, AFP-11), goat MK (1:100, R&D Systems), goat SOX17 (1:100, R&D), goat Brachyury (1:100, R&D), PAX6 (1:300, Covance), mouse and rabbit Tuj1 (1:500, Covance), goat OTX2 (1:1000, Neuromics), mouse Nestin (1:400, Millipore), rabbit OLIG2 (1:50, Santa Cruz, H-68), mouse HB9 (1:50, 81.5C10, Developmental Studies Hybridoma Bank), rabbit GFAP (1:1000, DAKO), rabbit and sheep TH (1:500, Pel-Freez), rabbit PTPz (1:50, Santa Cruz), goat ALK (1:50, Santa Cruz). Light-microscopic immunostaining for PAX6 with the DAB method was performed according to the manufacturer (Vector).

AKT = experiment: Western blot of AKT phosphorylation at Serine 473 (PI3K pathway); assay type: cell-based, human; conditions: 100 ng/mL, 24 hr
Text: as §1
as §2, with “Western Blots were imaged using the Odyssey Infrared Imaging System (LI-COR).” left out

Row | Molecule | MAPK activation (ERK1/2 phosphorylation level) (ERK1/2) | NTL structures observed (hESCs (H9 cells)) | further results
1 | FGF-2: fibroblast growth factor 2 (NIH/NCI) | significantly stronger activation | – | –
2 | Cc1cccc(-c2nn(C(=S)Nc3ccccc3)cc2-c2ccnc3ccccc23)n1 [A81-01] | – | – | potency relative to SB431542 (another inhibitor of ALK 5, 4, 7) (ALK 5, 4, 7): more potent
3 | N#CC(=C(/N)Sc1ccccc1N)/C(C#N)=C(\N)Sc1ccccc1N [U0126] | – | – | total H9 hESCs differentiated into PAX6+/Nestin+ cells (FACS) (H9 hESCs): ~95%; PAX6 expression / neuralization in MK+DAP-treated hESC cultures (H9 hESCs; 40 μM inhibitor together with 100 ng/mL MK+DAP): dramatically reduced; also recorded: disruption of neuralization
4 | delta-like 4: Notch ligand (R&D) | – | never observed | –
5 | Jagged1: Notch ligand (R&D) | – | never observed | –
6 | O=c1cc(N2CCOCC2)oc2c(-c3ccccc3)cccc12 [LY294002] | – | – | total H9 hESCs differentiated into PAX6+/Nestin+ cells (FACS) (H9 hESCs): ~95%
7 | IGF-1: insulin-like growth factor 1 (Peprotech) | moderate level | never observed | signaling through PI3K pathway (phosphorylation level of AKT) (AKT): signal through both the PI3K pathway and the MAPK pathway
8 | Noggin: BMP antagonist, recombinant protein (Peprotech) (protein, UniProt Q13253 28-232, looked up) Noggin: QHYLHIRPAPSDNLPLVDLIEHPDPIFDPKEKDLNETLLRSLLGGHYDPGFMATSPPEDRPGGGGGAAGGAEDLAELDQLLRQRPSGAMPSEIKGLEFSEGLAQGKKQRLSKKLRRKLQMWLWSQTFCPVLYAWNDLGSRFWPRYVKVGSCFSKRSCSVPEGMVCKPSKSVHLTVLRWRCQRRGGQRCGWIPIQYPIISECKCSC | – | never observed | –
9 | MK: 13-kDa cysteine-rich secreted heparin-binding growth and differentiation factor; recombinant protein (Millipore) (protein, UniProt P21741 21-143, looked up) Midkine: VAKKKDKVKKGGPGSECAEWAWGPCTPSSKDCGVGFREGTCGAQTQRIRCRVPCNWKKEFGADCKYKFENWGACDGGTGTKVRQGTLKKARYNAQCQETIRVTKPCTPKTKAKAKAKKGKGKD | moderate level | – | signaling through PI3K pathway (phosphorylation level of AKT) (AKT): signal through both the PI3K pathway and the MAPK pathway; solitary growing hESC colonies directly differentiated into neural tube-like (NTL) structures (hESCs (H9 cells); 100 ng/mL MK, within 6-8 days): 5-10%; total cells differentiated into PAX6+ cells (H9 hESCs; 100 ng/mL MK alone, Matrigel, feeder-free, 6 days, FACS and immunostainings): 20-40%
10 | delta-like 1: Notch ligand (R&D) (protein, UniProt O00548 18-723, looked up) Delta-like protein 1: QVWSSGVFELKLQEFVNKKGLLGNRNCCRGGAGPPPCACRTFFRVCLKHYQASVSPEPPCTYGSAVTPVLGVDSFSLPDGGGADSAFSNPIRFPFGFTWPGTFSLIIEALHTDSPDDLATENPERLISRLATQRHLTVGEEWSQDLHSSGRTDLKYSYRFVCDEHYYGEGCSVFCRPRDDAFGHFTCGERGEKVCNPGWKGPYCTEPICLPGCDEQHGFCDKPGECKCRVGWQGRYCDECIRYPGCLHGTCQQPWQCNCQEGWGGLFCNQDLNYCTHHKPCKNGATCTNTGQGSYTCSCRPGYTGATCELGIDECDPSPCKNGGSCTDLENSYSCTCPPGFYGKICELSAMTCADGPCFNGGRCSDSPDGGYSCRCPVGYSGFNCEKKIDYCSSSPCSNGAKCVDLGDAYLCRCQAGFSGRHCDDNVDDCASSPCANGGTCRDGVNDFSCTCPPGYTGRNCSAPVSRCEHAPCHNGATCHERGHRYVCECARGYGGPNCQFLLPELPPGPAVVDLTEKLEGQGGPFPWVAVCAGVILVLMLLLGCAAVVVCVRLRLQKHRPPADPCRGETETMNNLANCQREKDISVSIIGATQIKNTNKKADFHGDHSADKNGFKARYPAVDYNLVQDLKGDDTAVRDAHSKRDTKCQPQGSSGEEKGTPTTLRGGEASERKRPDSGCSTSKDTKYQSVYVISEEKDECVIATEV | – | never observed | –
